Measured values taken from ChEMBL document CHEMBL3400074, “Development of 2-amino-5-phenylthiophene-3-carboxamide derivatives as novel inhibitors of Mycobacterium tuberculosis DNA GyrB domain” (Bioorg Med Chem, 2015).

Legend:
[1] = Cytotoxicity against mouse RAW264.7 cells at 100 uM after 48 hrs by MTT assay; assay type: cell-based; details: read-out: INH
DNA gyrase subunit B = DNA gyrase subunit B (Mycobacterium smegmatis, UniProt P0C559); assay: Inhibition of Mycobacterium smegmatis DNA GyrB domain assessed as inhibition of inorganic phosphate release after 100 mins at room temperature by ATPase assay; set-up: species or system Mycolicibacterium smegmatis
Sequence of DNA gyrase subunit B (P0C559 whole entry, the tested form may be a part): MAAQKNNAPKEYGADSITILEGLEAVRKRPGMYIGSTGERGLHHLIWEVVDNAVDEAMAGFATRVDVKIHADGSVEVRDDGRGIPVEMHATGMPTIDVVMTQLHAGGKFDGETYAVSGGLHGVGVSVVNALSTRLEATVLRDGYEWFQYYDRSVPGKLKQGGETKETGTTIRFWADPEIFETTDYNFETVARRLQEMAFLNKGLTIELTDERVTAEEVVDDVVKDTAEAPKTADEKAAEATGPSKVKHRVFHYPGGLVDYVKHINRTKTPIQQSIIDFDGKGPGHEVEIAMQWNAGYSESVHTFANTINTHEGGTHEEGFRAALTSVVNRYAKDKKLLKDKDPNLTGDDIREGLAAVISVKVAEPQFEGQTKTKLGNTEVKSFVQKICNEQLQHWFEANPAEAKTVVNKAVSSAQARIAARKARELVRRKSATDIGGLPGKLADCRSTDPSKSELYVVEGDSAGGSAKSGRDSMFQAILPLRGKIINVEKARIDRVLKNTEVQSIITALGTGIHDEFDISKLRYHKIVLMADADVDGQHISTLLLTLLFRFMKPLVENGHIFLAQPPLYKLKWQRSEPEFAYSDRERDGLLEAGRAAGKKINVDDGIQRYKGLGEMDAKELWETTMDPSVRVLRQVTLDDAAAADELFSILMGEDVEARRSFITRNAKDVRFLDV

[2] = Inhibition of Mycobacterium tuberculosis DNA GyrA/B heterotetramer assessed as inhibition of pBR322 supercoiling after 30 mins by gel electrophoresis
[3] = biological target: DNA gyrase subunit B (Mycobacterium smegmatis) (UniProt P0C559); assay: Binding affinity to Mycobacterium smegmatis DNA GyrB domain assessed as change in melting temperature by differential scanning fluorimetry; details: Mycolicibacterium smegmatis
Sequence of DNA gyrase subunit B (Mycobacterium smegmatis) (P0C559 2-675 limits assumed): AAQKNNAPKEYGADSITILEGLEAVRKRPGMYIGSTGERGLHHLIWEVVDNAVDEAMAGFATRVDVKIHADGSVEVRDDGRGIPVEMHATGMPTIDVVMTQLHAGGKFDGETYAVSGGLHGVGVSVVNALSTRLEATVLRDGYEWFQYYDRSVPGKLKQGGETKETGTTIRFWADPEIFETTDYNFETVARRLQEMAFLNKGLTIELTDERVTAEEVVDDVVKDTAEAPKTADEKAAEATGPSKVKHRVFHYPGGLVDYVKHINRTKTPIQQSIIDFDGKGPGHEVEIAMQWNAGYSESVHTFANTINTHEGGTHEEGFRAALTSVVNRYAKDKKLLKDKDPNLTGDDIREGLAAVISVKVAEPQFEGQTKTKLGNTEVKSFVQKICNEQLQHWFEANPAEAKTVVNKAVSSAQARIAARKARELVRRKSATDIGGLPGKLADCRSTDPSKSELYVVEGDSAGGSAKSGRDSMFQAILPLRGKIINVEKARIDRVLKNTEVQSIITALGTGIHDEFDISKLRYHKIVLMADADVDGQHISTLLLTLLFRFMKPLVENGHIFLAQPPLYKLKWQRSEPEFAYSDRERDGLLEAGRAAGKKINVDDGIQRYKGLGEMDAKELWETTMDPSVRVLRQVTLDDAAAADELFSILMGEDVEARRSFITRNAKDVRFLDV

`CO[C@@H]1[C@@H](OC(N)=O)[C@@H](O)[C@H](Oc2ccc3c(O)c(NC(=O)c4ccc(O)c(CC=C(C)C)c4)c(=O)oc3c2C)OC1(C)C` [NOVOBIOCIN] gave a cytotoxicity at 48 h, 100 µM [1] of 81.7%.

Work on `NC(=O)c1cc(-c2ccccc2)sc1NC(=O)c1ccc([N+](=O)[O-])cc1` yielded a cytotoxicity at 48 h, 100 µM [1] of 35.9%, an IC50 (DNA gyrase subunit B) of 8.91 µM and an IC50 [2] of 6.77 µM.

Compound `NC(=O)c1cc(-c2ccccc2)sc1NC(=O)NCc1ccccc1` has a cytotoxicity at 48 h, 100 µM [1] of 33%, an IC50 (DNA gyrase subunit B) of 10.8 µM and an IC50 [2] of 8.89 µM.

Work on `NC(=O)c1cc(-c2ccccc2)sc1NC(=O)Nc1ccc(F)cc1` yielded a cytotoxicity at 48 h, 100 µM [1] of 33.7%, an IC50 (DNA gyrase subunit B) of 11.5 µM and an IC50 [2] of 9.88 µM.

In the case of `NC(=O)c1cc(-c2ccccc2)sc1NC(=O)Nc1ccc([N+](=O)[O-])cc1`, the cytotoxicity at 48 h, 100 µM [1] is reported as 37.3%, the IC50 (DNA gyrase subunit B) is reported as 12.8 µM and the IC50 [2] is reported as 10.9 µM.

In the case of `CC(C)NC(=S)Nc1sc(-c2ccccc2)cc1C(N)=O`, the cytotoxicity at 48 h, 100 µM [1] is reported as 35.5%, the IC50 (DNA gyrase subunit B) is reported as 16.2 µM and the IC50 [2] is reported as 9.25 µM.

With `CC(=O)Nc1sc(-c2ccccc2)cc1C(N)=O` the cytotoxicity at 48 h, 100 µM [1] was 37.5%, the IC50 (DNA gyrase subunit B) was 19.1 µM and the IC50 [2] was 11.8 µM.

`CC(C)NC(=O)Nc1sc(-c2ccccc2)cc1C(N)=O` gave a cytotoxicity at 48 h, 100 µM [1] of 36.1%, an IC50 (DNA gyrase subunit B) of 6.47 µM and an IC50 [2] of 6.17 µM.

With `NC(=O)c1cc(-c2ccccc2)sc1NC(=O)c1cnccn1` the cytotoxicity at 48 h, 100 µM [1] was 34.3%, the IC50 (DNA gyrase subunit B) was 18.4 µM and the IC50 [2] was greater than 25 µM.

`NC(=O)c1cc(-c2ccccc2)sc1NC(=O)Nc1ccccc1` showed a cytotoxicity at 48 h, 100 µM [1] of 37.3%, an IC50 (DNA gyrase subunit B) of 1.83 µM and an IC50 [2] of 1.32 µM.

Work on `NC(=O)c1cc(-c2ccccc2)sc1NC(=O)c1ccc(Cl)cc1` yielded a cytotoxicity at 48 h, 100 µM [1] of 38.5%, an IC50 (DNA gyrase subunit B) of 6.69 µM and an IC50 [2] of 5.82 µM.

For `Cc1ccc(NC(=S)Nc2sc(-c3ccccc3)cc2C(N)=O)cc1`, the cytotoxicity at 48 h, 100 µM [1] was 34.8%, the IC50 (DNA gyrase subunit B) was 2.46 µM and the IC50 [2] was 2.97 µM.

With `NC(=O)c1cc(-c2ccccc2)sc1NC(=S)Nc1ccc(F)cc1` the cytotoxicity at 48 h, 100 µM [1] was 32.1%, the IC50 (DNA gyrase subunit B) was 48.9 µM and the IC50 [2] was greater than 25 µM.

`NC(=O)c1cc(-c2ccccc2)sc1NC(=S)NCc1ccccc1` gave a cytotoxicity at 48 h, 100 µM [1] of 36.1%, an IC50 (DNA gyrase subunit B) of 28.3 µM and an IC50 [2] of 17.8 µM.

Work on `NC(=O)c1cc(-c2ccccc2)sc1NC(=O)Nc1ccc(Br)cc1` yielded a cytotoxicity at 48 h, 100 µM [1] of 37.6%, an IC50 (DNA gyrase subunit B) of 12.2 µM and an IC50 [2] greater than 25 µM.

In the case of `NC(=O)c1cc(-c2ccccc2)sc1NC(=S)Nc1ccc([N+](=O)[O-])cc1`, the cytotoxicity at 48 h, 100 µM [1] is reported as 40.3%, the IC50 (DNA gyrase subunit B) is reported as 32.5 µM and the IC50 [2] is reported as greater than 25 µM.

Compound `NC(=O)c1cc(-c2ccccc2)sc1NC(=O)c1ccccc1` has a cytotoxicity at 48 h, 100 µM [1] of 37.6%, an IC50 (DNA gyrase subunit B) of 0.86 µM and an IC50 [2] of 0.76 µM. It also gave a ΔTm [3] of 2.5 °C.

In the case of `CCC(=O)Nc1sc(-c2ccccc2)cc1C(N)=O`, the cytotoxicity at 48 h, 100 µM [1] is reported as 39.4%, the IC50 (DNA gyrase subunit B) is reported as 11.8 µM and the IC50 [2] is reported as 5.62 µM.

`NC(=O)c1cc(-c2ccccc2)sc1NC(=O)c1cc2ccccc2[nH]1` gave a cytotoxicity at 48 h, 100 µM [1] of 36.2%, an IC50 (DNA gyrase subunit B) of 22 µM and an IC50 [2] of 18.2 µM.

With `NC(=O)c1cc(-c2ccccc2)sc1NC(=O)C1CCCC1` the cytotoxicity at 48 h, 100 µM [1] was 39.7%, the IC50 (DNA gyrase subunit B) was 42.2 µM and the IC50 [2] was greater than 25 µM.

In the case of `NC(=O)c1cc(-c2ccccc2)sc1NC(=O)c1cccc2ccccc12`, the cytotoxicity at 48 h, 100 µM [1] is reported as 36.8%, the IC50 (DNA gyrase subunit B) is reported as 28.6 µM and the IC50 [2] is reported as greater than 25 µM.

`NC(=O)c1cc(-c2ccccc2)sc1NC(=O)c1ccc(Oc2ccccc2)cc1` showed a cytotoxicity at 48 h, 100 µM [1] of 35.8%, an IC50 (DNA gyrase subunit B) of 17.3 µM and an IC50 [2] of 8.85 µM.

For `NC(=O)c1cc(-c2ccccc2)sc1NC(=O)Nc1ccc(Cl)cc1`, the cytotoxicity at 48 h, 100 µM [1] was 38.2%, the IC50 (DNA gyrase subunit B) was 3.14 µM and the IC50 [2] was 2.97 µM.

In the case of `Cc1ccc(NC(=O)Nc2sc(-c3ccccc3)cc2C(N)=O)cc1`, the cytotoxicity at 48 h, 100 µM [1] is reported as 37.6%, the IC50 (DNA gyrase subunit B) is reported as 24 µM and the IC50 [2] is reported as greater than 25 µM.

For `NC(=O)c1cc(-c2ccccc2)sc1NC(=S)Nc1ccccc1`, the cytotoxicity at 48 h, 100 µM [1] was 32.8%, the IC50 (DNA gyrase subunit B) was 70.3 µM and the IC50 [2] was greater than 25 µM.

`NC(=O)c1cc(-c2ccccc2)sc1NC(=S)Nc1ccc(Cl)cc1` gave a cytotoxicity at 48 h, 100 µM [1] of 36.1%, an IC50 (DNA gyrase subunit B) of 71.4 µM and an IC50 [2] greater than 25 µM.

With `NC(=O)c1cc(-c2ccccc2)sc1NC(=O)C1CCCCC1` the cytotoxicity at 48 h, 100 µM [1] was 39%, the IC50 (DNA gyrase subunit B) was 10.2 µM and the IC50 [2] was 9.83 µM.

With `NC(=O)c1cc(-c2ccccc2)sc1NC(=S)Nc1ccc(Br)cc1` the cytotoxicity at 48 h, 100 µM [1] was 35.6%, the IC50 (DNA gyrase subunit B) was 10.9 µM and the IC50 [2] was 9.63 µM.

`NC(=O)c1cc(-c2ccccc2)sc1NC(=O)c1cccs1` showed an IC50 (DNA gyrase subunit B) of 1.5 µM and an IC50 [2] of 1.16 µM.

In the case of `CCCC(=O)Nc1sc(-c2ccccc2)cc1C(N)=O`, the cytotoxicity at 48 h, 100 µM [1] is reported as 39.8%, the IC50 (DNA gyrase subunit B) is reported as 3.57 µM and the IC50 [2] is reported as 3.14 µM.
